Measured values published in the supplement of paper PMC10307832.

Columns and labels:
Assay in all cases: relative viability (nuclei count vs DMSO), 5 days (fraction); higher = more cells survive
Erlotinib + Navitoclax = compound: C#Cc1cccc(Nc2ncnc3cc(OCCOC)c(OCCOC)cc23)c1 [Erlotinib] + CC1(C)CCC(c2ccc(Cl)cc2)=C(CN2CCN(c3ccc(C(=O)NS(=O)(=O)c4ccc(N[C@H](CCN5CCOCC5)CSc5ccccc5)c(S(=O)(=O)C(F)(F)F)c4)cc3)CC2)C1 [Navitoclax] (partner 0.5 µM)
Outline: (§1)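 One day after seeding in 1536-well plates, lung cancer cell lines were dosed by pin tool. Dosing was either single-drug or a fixed anchor-drug dose plus five library-drug doses (not always all listed) in √10 steps. After 5 days, nuclei were stained in one fix-and-stain step and counted on 4× images, and relative viability is the nuclei count of treated wells over that of vehicle wells, given as the median of duplicate plates.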

AT9283 + Dasatinib = compound: O=C(Nc1c[nH]nc1-c1nc2ccc(CN3CCOCC3)cc2[nH]1)NC1CC1 [AT9283] + Cc1nc(Nc2ncc(C(=O)Nc3c(C)cccc3Cl)s2)cc(N2CCN(CCO)CC2)n1 [Dasatinib] (partner 0.075 µM)
Outline: as §1

AT9283 + Tozasertib = compound: O=C(Nc1c[nH]nc1-c1nc2ccc(CN3CCOCC3)cc2[nH]1)NC1CC1 [AT9283] + Cc1cc(Nc2cc(N3CCN(C)CC3)nc(Sc3ccc(NC(=O)C4CC4)cc3)n2)n[nH]1 [Tozasertib] (partner 0.1 µM)
Outline: as §1

AT9283 + Luminespib = compound: O=C(Nc1c[nH]nc1-c1nc2ccc(CN3CCOCC3)cc2[nH]1)NC1CC1 [AT9283] + CCNC(=O)c1noc(-c2cc(C(C)C)c(O)cc2O)c1-c1ccc(CN2CCOCC2)cc1 [Luminespib] (partner 0.01 µM)
Outline: as §1

Erlotinib + Foretinib = compound: C#Cc1cccc(Nc2ncnc3cc(OCCOC)c(OCCOC)cc23)c1 [Erlotinib] + COc1cc2c(Oc3ccc(NC(=O)C4(C(=O)Nc5ccc(F)cc5)CC4)cc3F)ccnc2cc1OCCCN1CCOCC1 [Foretinib] (partner 0.25 µM)
Outline: as §1

| Cell Line | relative viability (Erlotinib + Navitoclax; first compound 0.02 µM) | relative viability (Erlotinib + Navitoclax; first compound 0.2 µM) | relative viability (Erlotinib + Navitoclax; first compound 0.6325 µM) | relative viability (Erlotinib + Navitoclax; first compound 2 µM) | relative viability (AT9283 + Dasatinib; first compound 0.003 µM) | relative viability (AT9283 + Dasatinib; first compound 0.03 µM) | relative viability (AT9283 + Dasatinib; first compound 0.09487 µM) | relative viability (AT9283 + Dasatinib; first compound 0.3 µM) | relative viability (AT9283 + Tozasertib; first compound 0.003 µM) | relative viability (AT9283 + Tozasertib; first compound 0.03 µM) | relative viability (AT9283 + Tozasertib; first compound 0.09487 µM) | relative viability (AT9283 + Tozasertib; first compound 0.3 µM) | relative viability (AT9283 + Luminespib; first compound 0.003 µM) | relative viability (AT9283 + Luminespib; first compound 0.03 µM) | relative viability (AT9283 + Luminespib; first compound 0.09487 µM) | relative viability (AT9283 + Luminespib; first compound 0.3 µM) | relative viability (Erlotinib + Foretinib; first compound 0.02 µM) | relative viability (Erlotinib + Foretinib; first compound 0.2 µM) | relative viability (Erlotinib + Foretinib; first compound 0.6325 µM) | relative viability (Erlotinib + Foretinib; first compound 2 µM) |
| --- | --- | --- | --- | --- | --- | --- | --- | --- | --- | --- | --- | --- | --- | --- | --- | --- | --- | --- | --- | --- |
| NCI-H2347 | 1.07 | 0.833 | 0.837 | 0.796 | 0.342 | 0.313 | 0.26 | 0.223 | 0.517 | 0.456 | 0.336 | 0.326 | 0.364 | 0.543 | 0.43 | 0.231 | 0.877 | 0.841 | 1.08 | 0.61 |
| NCI-H3122 | 1.05 | 1.04 | 1.01 | 1.03 | 0.763 | 0.664 | 0.111 | 0.0513 | 0.338 | 0.348 | 0.319 | 0.113 | 0.122 | 0.0841 | 0.051 | 0.0606 | 0.982 | 0.989 | 0.963 | 0.884 |
| HARA | 1.16 | 1.08 | 0.88 | 0.964 | 0.27 | 0.235 | 0.0621 | 0.0732 | 0.154 | 0.1 | 0.0825 | 0.0852 | 0.755 | 0.189 | 0.0743 | 0.124 | 0.929 | 0.602 | 0.636 | 0.401 |
| HCC-78 | 0.731 | 0.503 | 0.744 | 0.621 | 0.291 | 0.322 | 0.201 | 0.216 | 0.501 | 0.354 | 0.267 | 0.291 |  |  |  |  | 0.477 | 0.42 | 0.362 | 0.322 |
| HCC-366 | 1.03 | 1.02 | 1.02 | 1.01 | 0.619 | 0.566 | 0.104 | 0.053 | 0.127 | 0.438 | 0.0615 | 0.0586 |  |  |  |  | 0.867 | 0.936 | 0.976 | 0.941 |
| PC-14 | 0.935 |  | 0.391 | 0.31 | 0.221 | 0.146 | 0.0272 | 0.016 | 0.504 | 0.387 | 0.0959 | 0.0742 | 0.156 | 0.15 | 0.121 | 0.0746 | 0.76 | 0.23 | 0.199 | 0.153 |
| LK-2 | 0.941 | 0.621 | 1.04 | 0.725 | 0.228 | 0.197 | 0.135 | 0.142 | 0.174 | 0.225 | 0.172 | 0.209 | 0.195 | 0.19 | 0.176 | 0.206 | 1.24 | 0.718 | 1.46 | 1.23 |
| NCI-H358 |  |  |  |  | 0.147 | 0.1 | 0.0732 | 0.0691 | 0.108 | 0.0953 | 0.107 | 0.0809 | 0.4 | 0.147 | 0.166 | 0.129 | 0.656 | 0.408 | 0.39 | 0.176 |
| UMC-11 | 0.337 | 0.281 | 0.336 | 0.3 | 0.453 | 0.128 | 0.139 | 0.154 | 0.19 | 0.221 | 0.207 | 0.21 | 1.05 | 0.161 | 0.16 | 0.165 | 1.04 | 0.973 | 1.08 | 1.08 |
| LCLC-97TM1 | 0.39 |  | 0.464 | 0.391 | 0.798 | 0.492 | 0.255 | 0.162 | 0.199 | 0.123 | 0.18 | 0.181 | 0.662 | 0.634 | 0.137 | 0.157 | 0.894 | 0.89 | 0.963 | 0.791 |
| HOP-62 | 1.08 |  | 1.19 | 1.05 | 0.666 | 0.58 | 0.295 | 0.186 | 0.34 | 0.263 | 0.213 | 0.265 | 0.916 | 0.783 | 0.279 | 0.292 | 1.22 | 1.08 | 1.15 | 0.89 |
| NCI-H1703 | 1.1 | 1.09 | 1.32 | 1.11 |  |  |  |  |  |  |  |  |  |  |  |  | 0.33 | 0.419 | 0.343 | 0.357 |
| NCI-H520 | 1.17 | 1.11 | 1.29 | 1.12 | 0.2 | 0.174 | 0.147 | 0.145 | 0.48 | 0.435 | 0.423 | 0.251 | 0.247 | 0.23 | 0.204 | 0.254 | 0.803 | 0.926 | 0.749 | 0.745 |
| NCI-H2126 | 0.879 | 0.707 | 0.537 | 0.402 | 0.587 | 0.602 | 0.439 | 0.271 | 0.788 | 0.506 | 0.341 | 0.313 | 0.949 | 0.954 | 0.826 | 0.422 | 1.29 | 1.05 | 0.947 | 0.764 |
| NCI-H2087 | 1.14 | 0.913 | 0.899 | 0.904 | 0.765 | 0.309 | 0.122 | 0.0986 | 0.24 | 0.192 | 0.189 | 0.148 | 0.163 | 0.17 | 0.15 | 0.139 | 1.12 | 1.18 | 1.12 | 0.964 |
| NCI-H1355 | 1.02 | 0.9 | 0.812 | 0.675 | 0.634 | 0.727 | 0.296 | 0.273 | 0.518 | 0.464 | 0.224 | 0.218 | 0.6 | 0.702 | 0.375 | 0.239 | 1.01 | 0.821 | 0.877 | 0.781 |
| Calu-6 | 0.919 | 0.803 | 0.781 | 0.759 |  |  |  |  |  |  |  |  |  |  |  |  | 0.94 | 0.838 | 0.886 | 0.803 |
